{"source": "patent US20090076009A1", "about": "“THIAZOLE DERIVATIVES AND THEIR USE AS ANTI-TUMOUR AGENTS” (priority 2006, published 2009)", "key": {"[1]": {"target": "mTOR PI kinase-related kinase (Homo sapiens, UniProt P42345)", "sequence (P42345 1362-2549)": "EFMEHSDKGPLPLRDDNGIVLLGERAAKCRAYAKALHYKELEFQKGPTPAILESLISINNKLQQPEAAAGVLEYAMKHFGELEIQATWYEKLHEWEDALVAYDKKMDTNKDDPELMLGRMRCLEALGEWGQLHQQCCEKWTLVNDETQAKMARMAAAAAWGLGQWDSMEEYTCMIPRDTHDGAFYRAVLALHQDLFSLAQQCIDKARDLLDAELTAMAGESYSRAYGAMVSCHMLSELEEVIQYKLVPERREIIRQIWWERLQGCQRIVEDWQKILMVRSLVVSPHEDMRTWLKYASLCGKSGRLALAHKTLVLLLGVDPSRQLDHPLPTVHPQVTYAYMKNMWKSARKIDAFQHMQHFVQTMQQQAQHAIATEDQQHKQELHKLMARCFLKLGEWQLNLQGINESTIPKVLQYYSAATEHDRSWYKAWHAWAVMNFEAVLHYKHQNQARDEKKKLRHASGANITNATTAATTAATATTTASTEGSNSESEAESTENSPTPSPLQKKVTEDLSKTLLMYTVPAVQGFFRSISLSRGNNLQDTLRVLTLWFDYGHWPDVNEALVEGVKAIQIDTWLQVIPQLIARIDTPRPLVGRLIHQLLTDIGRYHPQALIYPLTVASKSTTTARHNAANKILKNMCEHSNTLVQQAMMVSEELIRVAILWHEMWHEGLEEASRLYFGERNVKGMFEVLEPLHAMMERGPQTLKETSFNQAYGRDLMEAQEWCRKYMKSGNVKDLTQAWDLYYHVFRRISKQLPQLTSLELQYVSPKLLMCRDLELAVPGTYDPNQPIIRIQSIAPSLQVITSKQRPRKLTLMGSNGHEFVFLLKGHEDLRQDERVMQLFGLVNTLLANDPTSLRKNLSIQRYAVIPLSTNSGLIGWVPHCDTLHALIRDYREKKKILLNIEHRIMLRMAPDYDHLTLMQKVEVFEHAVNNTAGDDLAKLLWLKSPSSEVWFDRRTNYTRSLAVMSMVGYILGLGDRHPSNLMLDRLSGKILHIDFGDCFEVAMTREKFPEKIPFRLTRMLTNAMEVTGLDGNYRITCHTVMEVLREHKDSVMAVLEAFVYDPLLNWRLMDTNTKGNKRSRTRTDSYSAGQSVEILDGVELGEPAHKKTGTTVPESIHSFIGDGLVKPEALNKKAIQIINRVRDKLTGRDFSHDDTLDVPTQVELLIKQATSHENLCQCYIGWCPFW", "assay": "In Vitro mTOR PI kinase-related Kinase Assay (AlphaScreen)", "type": "biochemical", "settings": "Test (b); read-out: IC50 versus mTOR PI kinase-related kinase", "protocol": "(b) In Vitro mTOR PI kinase-related Kinase Assay The assay used AlphaScreen technology (Gray et al., Analytical Biochemistry, 2003, 313: 234-245) to determine the ability of test compounds to inhibit phosphorylation by recombinant mTOR. […]\nEach reaction was stopped by the addition of 10 μl of a mixture of EDTA (50 mM), bovine serum albumin (BSA; 0.5 mg/ml) and Tris-HCl pH7.4 buffer (50 mM) containing p70 S6 Kinase (T389) IA5 Monoclonal Antibody (Cell Signalling Technology, Catalogue No. 9206B) and AlphaScreen Streptavidin donor and Protein A acceptor beads (200 ng; Perkin Elmer, Catalogue No. 6760002B and 6760137R respectively) were added and the assay plates were left for about 20 hours at room temperature in the dark. The resultant signals arising from laser light excitation at 680 nm were read using a Packard Envision instrument.\nPhosphorylated biotinylated peptide is formed in situ as a result of mTOR mediated phosphorylation. […] Upon laser light excitation at 680 nm, the donor bead: acceptor bead complex produces a signal that can be measured. […] In the presence of an mTOR kinase inhibitor, signal strength is reduced. mTOR enzyme inhibition for a given test compound was expressed as an IC50 value."}, "[2]": {"target": "T1, p110α Type Ia human PI3K (Homo sapiens, UniProt P42336)", "T1 construct": "full length DNA of each of the p110α, p110β and p110δ Type Ia human PI3K p110 isoforms; 6-His; made in house; Grp1 PH domain in E. coli", "T1 sequence (P27986 whole entry, the tested form may be a part, canonical isoform)": "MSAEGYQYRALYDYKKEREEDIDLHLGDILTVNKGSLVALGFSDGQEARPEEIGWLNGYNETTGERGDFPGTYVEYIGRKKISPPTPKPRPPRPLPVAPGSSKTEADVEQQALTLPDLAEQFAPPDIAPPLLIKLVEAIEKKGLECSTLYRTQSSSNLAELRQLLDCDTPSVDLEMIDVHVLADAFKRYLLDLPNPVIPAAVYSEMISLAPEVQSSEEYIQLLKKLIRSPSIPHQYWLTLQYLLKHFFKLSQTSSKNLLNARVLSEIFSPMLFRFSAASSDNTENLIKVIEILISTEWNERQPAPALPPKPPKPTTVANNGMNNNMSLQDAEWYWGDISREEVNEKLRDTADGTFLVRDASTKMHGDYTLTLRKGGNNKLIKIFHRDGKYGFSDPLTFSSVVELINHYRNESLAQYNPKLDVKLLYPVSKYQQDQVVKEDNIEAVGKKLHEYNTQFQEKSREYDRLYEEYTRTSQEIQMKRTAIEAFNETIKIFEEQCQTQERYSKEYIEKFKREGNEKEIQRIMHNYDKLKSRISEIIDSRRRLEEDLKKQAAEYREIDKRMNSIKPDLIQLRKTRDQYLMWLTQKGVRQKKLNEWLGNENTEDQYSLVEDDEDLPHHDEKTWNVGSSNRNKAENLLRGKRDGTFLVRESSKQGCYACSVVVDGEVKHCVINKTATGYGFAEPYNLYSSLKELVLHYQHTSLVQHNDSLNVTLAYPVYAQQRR", "T1 sequence (P42336 whole entry, the tested form may be a part, canonical isoform)": "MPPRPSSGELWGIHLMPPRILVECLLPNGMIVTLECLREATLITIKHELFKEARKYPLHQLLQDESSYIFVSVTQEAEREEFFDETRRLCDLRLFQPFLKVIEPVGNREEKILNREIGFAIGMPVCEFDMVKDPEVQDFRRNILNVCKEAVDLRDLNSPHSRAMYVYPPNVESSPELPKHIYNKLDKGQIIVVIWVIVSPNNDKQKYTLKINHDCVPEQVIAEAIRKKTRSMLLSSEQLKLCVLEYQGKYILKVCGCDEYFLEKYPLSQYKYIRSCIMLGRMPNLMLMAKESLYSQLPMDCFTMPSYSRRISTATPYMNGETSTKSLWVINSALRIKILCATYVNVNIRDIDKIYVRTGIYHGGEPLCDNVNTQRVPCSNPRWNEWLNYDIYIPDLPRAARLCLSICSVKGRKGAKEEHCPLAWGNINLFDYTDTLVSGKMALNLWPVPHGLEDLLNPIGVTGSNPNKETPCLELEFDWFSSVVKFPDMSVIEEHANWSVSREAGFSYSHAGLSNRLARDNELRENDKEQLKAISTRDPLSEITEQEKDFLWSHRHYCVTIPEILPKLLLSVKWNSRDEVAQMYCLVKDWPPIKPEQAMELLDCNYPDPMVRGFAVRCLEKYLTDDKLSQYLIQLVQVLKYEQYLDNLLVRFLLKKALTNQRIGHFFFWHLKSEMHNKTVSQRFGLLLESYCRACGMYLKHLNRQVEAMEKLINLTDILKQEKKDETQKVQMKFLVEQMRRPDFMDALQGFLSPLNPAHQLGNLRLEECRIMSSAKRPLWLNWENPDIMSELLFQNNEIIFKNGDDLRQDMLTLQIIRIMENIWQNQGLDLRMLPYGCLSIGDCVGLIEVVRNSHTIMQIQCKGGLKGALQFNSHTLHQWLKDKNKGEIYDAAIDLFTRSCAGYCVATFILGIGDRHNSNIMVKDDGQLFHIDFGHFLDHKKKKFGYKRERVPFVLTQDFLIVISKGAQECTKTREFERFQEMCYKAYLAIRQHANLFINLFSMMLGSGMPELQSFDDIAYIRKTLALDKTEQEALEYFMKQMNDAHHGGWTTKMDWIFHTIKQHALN", "assay": "In Vitro PI3K Enzyme Assay (AlphaScreen)", "type": "biochemical", "settings": "Test (a); read-out: IC50 versus p110α Type Ia human PI3K", "description": "(a) In Vitro PI3K Enzyme Assay\nThe assay used AlphaScreen technology (Gray et al., Analytical Biochemistry, 2003, 313: 234-245) to determine the ability of test compounds to inhibit phosphorylation by recombinant Type I PI3K enzymes of the lipid PI(4,5)P2.\nDNA fragments encoding human PI3K catalytic and regulatory subunits were isolated from cDNA libraries using standard molecular biology and PCR cloning techniques. The selected DNA fragments were used to generate baculovirus expression vectors. In particular, full length DNA of each of the p110α, p110β and p110δ Type Ia human PI3K p110 isoforms (EMBL Accession Nos. HSU79143, S67334, Y10055 for p110α, p110β and p110δ respectively) were sub-cloned into a pDEST10 vector (Invitrogen Limited, Fountain Drive, Paisley, UK). The vector is a Gateway-adapted version of Fastbac1 containing a 6-His epitope tag. […]\nEach reaction was stopped by the addition of 10 μl of a mixture of EDTA (100 mM), bovine serum albumin (BSA, 0.045%) and Tris-HCl pH7.6 buffer (40 mM). […] The resultant signals arising from laser light excitation at 680 nm were read using a Packard AlphaQuest instrument. […]"}, "[3]": {"tested_on": "phosphorylation of Serine 473 in Akt in MDA-MB-468 human breast adenocarcinoma cell line", "assay": "In Vitro Phospho-Ser473 Akt Assay", "type": "cell-based", "settings": "Test (c), MDA-MB-468 cells, read-out: IC50, inhibition of phosphorylation of Serine 473 in Akt", "protocol": "(c) In Vitro Phospho-Ser473 Akt Assay\nThis assay determines the ability of test compounds to inhibit phosphorylation of Serine 473 in Akt as assessed using Acumen Explorer technology (TTP LabTech Limited, Royston, Herts, SG8 6EE, UK), a plate reader that can be used to rapidly quantitate features of images generated by laser-scanning.\nA MDA-MB-468 human breast adenocarcinoma cell line (LGC Promochem, Teddington, Middlesex, UK, Catalogue No. HTB-132) was routinely maintained at 37° C. with 5% CO2 up to a confluency of 70-90% in DMEM containing 10% FCS and 1% L-glutamine.\nFor the assay, the cells were detached from the culture flask using ‘Accutase’ (Innovative Cell Technologies Inc., San Diego, Calif., USA; Catalogue No. AT104) using standard tissue culture methods and resuspended in media to give 5.5×10^4 cells per ml. Aliquots (90 μl) were seeded into each of the inner 60 wells of a black ‘Costar’ 96-well plate (Corning Inc., NY, USA; Catalogue No. 3904) to give a density of 5000 cells per well. Aliquots (90 μl) of culture media were placed in the outer wells to prevent edge effects. [An alternative cell handling procedure involved the maintenance of the cells in a ‘SelecT’ robotic device (The Automation Partnership, Royston, Herts SG8 5WY, UK). Cells were resuspended in media to give 5×10^4 cells per ml. Aliquots (100 μl) were seeded into the wells of a black ‘Costar’ 96-well plate.] […]"}}, "note": "pIC50: −log10 of the molar value."}
{"molecule": "CC(=O)Nc1ncc(-c2cc(NS(=O)(=O)c3ccccc3)cnc2C)s1", "note": "[Example 1, N-[5-(5-benzenesulphonamido-2-methylpyridin-3-yl)thiazol-2-yl]acetamide]", "values": [{"measurement": "pIC50", "setting": "[1]", "value": "~6.30"}, {"measurement": "pIC50", "setting": "[2]", "value": "~5.30"}, {"measurement": "pIC50", "setting": "[3]", "value": "~5.00"}]}
